We go through 24 compounds from PubChem BioAssay (NCI).

Experiment in all cases: growth of human tumour cells (NCI), 48 h
Test [1] concerns A549 NSCLC.
In test [2] the test system is SK-MEL-2 melanoma.
The subject of test [3] is 786-0 renal.
Test [4] concerns SN12C renal.
Test [5] relates to OVCAR-3 ovarian.
The subject of test [6] is U251 CNS.
Test [7] relates to HT29 colon.
Test [8] has as its system LOX IMVI melanoma.
Test [9] has as its system IGROV1 ovarian.
For test [10], the system named is PC-3 prostate.

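Assay format: 96-well plates, 48-hour exposure. At the GI50, growth is halved. TGI denotes the concentration required for complete inhibition of growth.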

Take `N#Cc1c2c(c(N3CCOCC3)n3c1nc1ccccc13)CCCC2`: the TGI in test [1] was determined as 61.7 µM; in [2], 31.8 µM; in [3], 41.3 µM; in test [4], 45.8 µM; in test [5], 36.5 µM; in test [6], 28.3 µM. Moreover, the TGI in test [7] amounted to 38.6 µM; in test [8], 41.1 µM; in test [9], 34.9 µM; in test [10] it was 50.3 µM.
Regarding `NC(N)=N/N=C/c1nc2sccn2c1[N+](=O)[O-]`, the TGI in [1] is > 100 µM; in [2] it was 41.8 µM; in [3] it was > 100 µM; in [4], > 100 µM; in test [5], 50.5 µM; in test [6] it was > 100 µM. Moreover, the TGI in test [7] was 67.7 µM; in [8] it was 56.1 µM; in test [9], > 100 µM; in test [10], > 100 µM.
In the case of `C/C=C/[C@H]1O[C@@](OC)([C@@H](C)[C@H](O)[C@H](C)[C@H]2OC(=O)/C(OC)=C/C(C)=C/[C@@H](C)[C@@H](O)[C@@H](C)[C@@H](O)[C@H](C)C/C(C)=C/C=C/[C@@H]2OC)CC(OC2CC(O)C(OC(N)=O)C(C)O2)[C@@H]1C` (stereo partly specified), the TGI came to 14.8 µM in test [1]; 1.15 µM in test [2]; 10.4 µM in test [3]; 9.3 µM in test [4]; 10.1 µM in test [5]; 9.71 µM in test [6]. Moreover, the TGI in test [7] was 1.17 µM; in test [8], < 0.01 µM; in [9], 15.1 µM; in test [10] it was 6.09 µM.
On to `O=C(Nc1cccc(-c2cn3ccccc3n2)c1)c1ccncc1`, for which the TGI is > 100 µM in [1]; 46.5 µM in [2]; > 100 µM in [3]; > 100 µM in test [4]; > 100 µM in [5]; > 100 µM in [6]. In addition, the TGI in test [7], in [8], in test [9] and in test [10] was > 100 µM in each case.
With `CCCCN(c1ccccc1)c1ncnc2c1cnn2C`, the TGI was > 100 µM in test [1]; 78.1 µM in test [2]; > 100 µM in [3]; > 100 µM in test [4]; > 100 µM in [5]; > 100 µM in test [6]. Also, the TGI in test [7], in test [8], in test [9] and in test [10] was > 100 µM throughout.
Turning to `CN1C2CC(=O)CC1[C@@H]1OC(c3ccccc3)O[C@H]21` (stereo partly specified), the TGI in test [1], in [2], in test [3], in [4], in [5] and in [6] was > 100 µM in each case. The TGI in test [7], in test [8], in test [9] and in [10] was > 100 µM each time.
In the case of `Cc1ccc2c(c1)OC1Nc3ccccc3C1=C2O` (stereo unspecified), the TGI in test [1] was > 100 µM; in test [2], 47.6 µM; in test [3], 66 µM; in [4], 93.4 µM; in test [5], 21.1 µM; in test [6], 57.5 µM. The TGI in test [7] is > 100 µM; in [8], 71.5 µM; in test [9], > 100 µM; in [10] it was 39.6 µM.
Consider `N#CCc1nc(C#N)c(N)o1`, for which the TGI in [1], in test [2], in [3], in [4], in test [5] and in test [6] was > 100 µM each time. Besides, the TGI in test [7], in [8], in test [9] and in test [10] was > 100 µM each time. Also, the GI50 in test [8] is > 100 µM.
Turning to `CCCCCCCCCCCCCCCCNc1nc(=O)n(C2CC(O)C(CO)O2)cc1F` (stereo unspecified), the TGI in test [1] was found to be 18.7 µM; in test [2], 40.3 µM; in [3], 21.7 µM; in test [4] it was 26.9 µM; in test [5], 39.3 µM; in test [6], 33.1 µM. The TGI in test [7] came to 21.5 µM; in [8], 24.1 µM; in [9], 27.6 µM; in test [10], 21.2 µM.
Turning to `CCN(CC)CCCNc1ccc2nnn3c4ccc(O)cc4c(=O)c1c23`, the TGI is 10.3 µM in [1]; 28.8 µM in [2]; 19.6 µM in test [3]; 20.7 µM in test [4]; 25.2 µM in test [5]; 7.61 µM in [6]. Also, the TGI in test [7] came out at 14.1 µM; in test [8], 13.1 µM; in [9], 19.4 µM; in [10], 19.3 µM.
With `CCCCCCCCCCCCCCCCCCOCC(O)COP(=O)(O)OCC1OC(n2cc(F)c(=O)[nH]c2=O)CC1O` (stereo unspecified), the TGI in test [1] was determined as 25.9 µM; in [2], 43.2 µM; in test [3], 17.8 µM; in [4] it was 27.9 µM; in [5], 46.7 µM; in [6] it was 22.4 µM. The TGI in test [7] was 23.6 µM; in test [8] it was 15.1 µM; in test [9] it was 26.8 µM; in [10], 18.8 µM.
Turning to `CCCCSc1n/c(=C\c2ccc(N(C)C)cc2)c2nnnn12`, the TGI in test [1], in test [2], in [3], in test [4], in test [5] and in [6] was > 100 µM throughout. The TGI in test [7], in test [8], in test [9] and in [10] was > 100 µM in each case.
Turning to `N#CC1=CNc2sccc2S1(=O)=O`, the TGI in test [1], in test [2], in [3], in test [4], in test [5] and in test [6] was > 100 µM each time. Also, the TGI in test [7], in [8], in test [9] and in test [10] was > 100 µM in each case.
`O=C(NNC(=S)Nc1ccccc1)c1csc(NC(=S)NC2CCCCC2)n1`: the TGI in test [1], in test [2], in test [3], in test [4], in test [5] and in [6] was > 100 µM in each case. In addition, the TGI in [7] is > 100 µM; in test [8] it was 69.5 µM; in [9] it was > 100 µM; in [10], > 100 µM.
Take `O=C1NC(N/N=C\c2ccccc2)=N/C1=C/c1ccc(Cl)cc1`: the TGI is 62.9 µM in [1]; 82.9 µM in [2]; > 100 µM in test [3]; 54.6 µM in [4]; 39.7 µM in test [5]; 76.9 µM in [6]. In addition, the TGI is > 100 µM in [7], 67.9 µM in test [8], 41.2 µM in [9] and 43.4 µM in test [10].
`CC#CC(O)(C(=O)OC1CCCN(C)C1)C1=CC=CCC1` (stereo unspecified): the TGI in test [1], in test [2], in test [3], in [4], in [5] and in test [6] was > 100 µM throughout. Besides, the TGI in test [7], in [8], in [9] and in test [10] was > 100 µM in each case.
In the case of `O=c1[nH]nc(Cc2ccc(Cl)cc2)n1O`, the TGI in [1], in test [2], in [3], in test [4], in test [5] and in test [6] was > 100 µM throughout. Besides, the TGI in test [7], in test [8], in [9] and in [10] was > 100 µM in each case.
For `NC(=O)CC(Nc1ncc2c(n1)-c1ccccc1OC2)C(=O)O` (stereo unspecified), the TGI in test [1], in test [2], in test [3], in [4], in test [5] and in test [6] was > 100 µM throughout. Moreover, the TGI in [7], in [8], in test [9] and in test [10] was > 100 µM each time.
On to `COC1/C=C/C(C)C(C(C)C(OC)C(C)CCC(=O)C(C)C(CCC(=O)O)OC)OC(=O)/C=C/C=C(\C)CC(OC)CC2=CC(=O)O[C@@H](C(C)C(OC)CC(OC)/C=C/C(C)C(OC)C1)[C@H]2O` (stereo partly specified), for which the TGI is > 5 µM in test [1]; 1.89 µM in test [2]; > 4.55 µM in [3]; > 5 µM in test [4]; 1.72 µM in test [5]; 1.39 µM in test [6]. Moreover, the TGI is > 5 µM in test [7], > 3.67 µM in test [8], 0.948 µM in test [9] and 2.82 µM in test [10].
For `COC(=O)C(COC(=O)/C=C/c1ccc(OC(C)=O)c(OC(C)=O)c1)OC(=O)/C=C/c1ccc(OC(C)=O)c(OC(C)=O)c1` (stereo unspecified), the TGI in test [1] is 41.6 µM; in test [2] it was 26 µM; in test [3], 24 µM; in test [4] it was 27.8 µM; in test [5], 29.9 µM; in test [6], 20.4 µM. The TGI is 19.7 µM in test [7], 23.4 µM in test [8], 23.9 µM in [9] and 23.4 µM in test [10].
With `CC(C)(C)OC(=O)N1C(OP(=O)(Oc2ccccc2)Oc2ccccc2)=COc2cccnc21`, the TGI in test [1] is > 100 µM; in test [2] it was 55.7 µM; in test [3], > 100 µM; in test [4] it was > 100 µM; in test [5], > 100 µM; in test [6], > 100 µM. Moreover, the TGI in test [7] was > 100 µM; in test [8] it was 85.3 µM; in [9], > 100 µM; in test [10], > 100 µM.
With `Cc1cc(S(=O)(=O)Nc2nnc3cc(C(F)(F)F)cc(C)n23)c(S)cc1Cl`, the TGI was 52.8 µM in [1]; > 100 µM in [2]; > 100 µM in [3]; > 100 µM in [4]; > 100 µM in [5]; > 81.5 µM in test [6]. The TGI in [7], in test [8], in test [9] and in test [10] was > 100 µM throughout.
With `O=C1OS2(OCc3cccc4cccc2c34)c2ccccc21` (stereo unspecified), the TGI in test [1], in test [2], in test [3], in test [4], in test [5] and in [6] was > 100 µM throughout. The TGI in [7], in test [8], in test [9] and in test [10] was > 100 µM in each case.
In the case of `N#CCCN(CCCN(C(=O)Nc1ccccc1)c1ccccc1)C(=O)Nc1ccccc1`, the TGI in [1], in test [2], in [3], in test [4], in test [5] and in test [6] was > 100 µM in each case. Besides, the TGI in [7], in test [8], in test [9] and in test [10] was > 100 µM throughout.
